Results as given in patent US20230247997A1 (published 2023).

| melting point [°C] | SMILES |
| --- | --- |
| 137 to 139 | COc1nc(-c2ccc(Cl)cc2)ns1 |
| 73 to 75 | COc1cccc(-c2nsc(OC)n2)c1 |
| 138 to 140 | COc1nc(-c2ccc([N+](=O)[O-])cc2)ns1 |
| 109 to 111 | COc1nc(-c2ccccc2)nc(-c2ccccc2)n1 |
| 173 to 174 | COc1nc(-c2ccc(F)cc2)nc(-c2ccc(F)cc2)n1 |
| 192 to 194 | COc1nc(-c2ccc(Cl)cc2)nc(-c2ccc(Cl)cc2)n1 |
| 126 to 128 | COc1cccc(-c2nc(OC)nc(-c3cccc(OC)c3)n2)c1 |
| 35 to 36 | CCSc1nc(-c2ccc(F)cc2)ns1 |
| 44 to 45 | CCSc1nc(-c2ccc(Cl)cc2)ns1 |
| 105 to 107 | CSc1nc(-c2ccc(Cl)cc2)ns1 |
| 36 to 37 | CCSc1nc(-c2ccc(Br)cc2)ns1 |
| 54 to 56 | CCSc1nc(-c2ccc(OC)cc2)ns1 |
| 103 to 104 | CCSc1nc(-c2ccc([N+](=O)[O-])cc2)ns1 |
| 49 to 50 | CCSc1nc(-c2ccncc2)ns1 |
| 60 to 62 | CCSc1nc(-c2cnccn2)ns1 |
| 128 to 129 | CCOC(=O)C=C1N=C(SCC)SN1 |
| 140 to 142 | CCSC1=NC(=CC(N)=O)NS1 |
| 35 to 37 | CCSc1nc(OC)ns1 |
| 116 to 118 | CCSc1nc(N(C)C)ns1 |
